Here are results for 16 molecules from patent US8354414B2, “Substituted bicyclic pyrimidines” (Cephalon, Inc, priority 2006, dated 2013).

Where two headings read alike, the source gives them in different places.

The target in test [1] is T1, His6-GSK-3β (Homo sapiens, UniProt P49841).
T1 construct: made in house; host or cells: Sf21 insect cells (baculovirus)
As to the kind of experiment: Inhibition of His6-GSK-3β kinase activity (ELISA-based format, time-resolved fluorescence readout). In kind it is biochemical. The note with it: read-out: GSK3β IC50. An excerpt:
Full-length GSK-3β was amplified from a sequence-verified I.M.A.G.E. EST acquired from Research Genetics (Invitrogen, Clone ID# CSODB003YJ02). The final sequence-verified cDNA contained the coding region for a NH2-terminal tag, which encoded for 6 histidines and then eight vector-encoded amino acids prior to the start of GSK3β, which contained by # 43-1342 of Genbank Accession # NM_002093, encoding amino acids #2-419. The predicted molecular weight of the tagged, 435 amino acid, full-length protein is 48.5 kDa. The major structural element of this protein is the kinase domain, which is from amino acids #56-340. Recombinant baculoviral DNA was prepared by transposition in E. coli (BAC-TO-BAC system: Invitrogen) and the virus generated and amplified in Sf21 insect cells. A suspension culture of Sf21 cells was infected at an MOI of 0.7 and cell density of 1.5×10^6 cells/mL in Excell 420 serum-free media (JRH BioScience) and harvested 65 h after infection. The 100,000×g supernatant solution was used for purification. Expression was confirmed by running samples on SDS-PAGE, followed by immunoblot analysis utilizing both a Penta-HIS antibody (Qiagen #34660) and a GSK-3α/GSK-3β antibody (Calbiochem #368662, data not shown). The His6-tagged protein was purified to in one step by Ni-NTA affinity chromatography.
Inhibitory effects of compounds on baculoviral GSK-3β kinase activity were evaluated using an ELISA-based format in a 384-well FluoroNunc Maxisorp plate (Cat # 460372) with a time-resolved fluorescence readout. Briefly, each plate was coated with 50 μl/well of 20 μg/ml substrate solution (recombinant GST-Rb) in Tris-buffered saline (TBS). The GSK-3β assay mixture (total volume=50 μl/well) consisting of 50 mM HEPES (pH 7.2), 20 μM ATP, 10 mM MgCl2, 5 mM EGTA, 25 mM β-glycerophosphate, 0.05% BSA, 2.5% DMSO, and various concentrations of test compound were then added to the assay plate. Enzyme (200 ng/ml His6-GSK-3β) was then added and the reaction was allowed to proceed at 37° C. for 30 minutes. Detection of the phosphorylated product was performed by adding 50 μl/well of phospho-Rb (Ser-780) antibody (Cell Signaling # 9307) diluted 1:10,000 in antibody dilution buffer (0.1% BSA in TBST). After 1-hour incubation at 37° C., 50 μl/well of Eu-N1 labelled anti-rabbit antibody (Wallac # AD0105; 1:50,000 in antibody dilution buffer) was added. Incubation at 37° C. then proceeded for 1 hour, followed by addition of 50 μl enhancement solution (Wallac #1244-105). The plate was gently agitated and after a few minutes, the fluorescence of the resulting solution was measured using a Multilabel Reader (Victor2 Model # 1420-018 or Envision Model 2100). Inhibition data were analyzed using ActivityBase and IC50 curves were generated using XLFit 3.0.5.

The target of test [2] is T2, CDK5/GST-p25 (Homo sapiens, UniProt Q00535).
T2 construct: The final construct, encoding for full-length human CDK5; made in house; host or cells: Sf21 insect cells (baculovirus co-infection)
As to the kind of experiment: Inhibition of CDK5/GST-p25 kinase activity (ELISA with time-resolved fluorescence readout). The class given is biochemical. Here is the method: Two recombinant baculoviral constructs were created, one encoding for human CDK5 and the other encoding for human p25 with an amino-terminal glutathione-S-transferase (GST) tag. PCR amplification of full-length CDK5 was performed utilizing human brain cDNA as a template and Pfu Turbo polymerase (Strategene). The PCR product from this reaction was subcloned into the baculoviral expression vector pFASTBAC1 (Gibco/BRL). The final construct, encoding for full-length human CDK5 (base pairs 25-903 of GenBank Accession #NM_004935), is 292 amino acids long with a predicted MW of 33.3 kDa.
For p25, the active truncated form of p35, amino acids 108-307 were PCR-amplified from human fetal brain cDNA (Clontech QUICK-Clone cDNA) using the Advantage 2 PCR system (Clontech). The PCR product was subcloned into the baculoviral transfer vector pFBGSTP (an engineered derivative of the baculoviral transfer vector pFASTBAC1). The final baculoviral construct encodes for base pairs 419-1021 of GenBank Accession #NM_003885, with an amino-terminal GST tag. The expressed GST-p25 is 444 amino acids long with a predicted MW of 50.3 kDa.
The CDK5/GST-p25 complex was generated by coexpression. Sf21 cells were cultured in TNM-FHS media at a density of 1.5×10^6 cells/mL and infected with each recombinant virus at MOI values of 5 (for CDK5) and 10 (for GST-p25). The cells were harvested 40 h after infection. For purification, the 100,000×g supernatant solution was used. Expression was confirmed by running samples on SDS-PAGE, followed by immunoblot analysis utilizing antibodies against CDK5 (anti-CDK5 (268-283); Calbiochem #219449) and p35 (Santa Cruz #sc820). The CDK5/GST-p25 complex was purified by glutathione affinity chromatography.
Compounds were tested for their ability to inhibit the kinase activity of recombinant baculoviral CDK5/GST-p25 using an enzyme-linked immunosorbent assay (ELISA) with time-resolved fluorescence (TRF) readout. Briefly, each 384-well FluoroNunc Maxisorp plate (Cat # 460372) plate was coated with 50 μl/well of 50 μg/ml substrate solution (recombinant GST-Rb(773-928)) in Tris-buffered saline (TBS). The CDK5/GST-p25 assay mixture (total volume=50 μl/well) consisting of 20 mM HEPES (pH 7.2), 10 μM ATP, 10 mM MgCl2, 5 mM EGTA, 25 mM β-glycerophosphate, 0.05% BSA, 2.5% DMSO, and various concentrations of test compound were then added to the assay plate. Enzyme (2 ng/ml CDK5/GST-p25) was added and the reaction was allowed to proceed at 37° C. for 20 minutes. Detection of the phosphorylated product was performed by adding 50 μl/well of phospho-Rb (Ser-780) antibody (Cell Signaling # 9307) diluted 1:10,000 in antibody dilution buffer (0.1% BSA in TBST). After 1-hour incubation at 37° C., 50 μl/well of Eu-Nl labelled anti-rabbit antibody (Wallac # AD0105; 1:50,000 in antibody dilution buffer) was added. Incubation at 37° C. then proceeded for 1 hour, followed by addition of 50 μl enhancement solution (Wallac #1244-105). The plate was gently agitated and after a few minutes, the fluorescence of the resulting solution was measured using a Multilabel Reader (Victor2 Model # 1420-018 or Envision Model # 2100). Inhibition data were analyzed using ActivityBase and IC50 curves were generated using XLFit 3.0.5.

T1 sequence (P49841 2-419): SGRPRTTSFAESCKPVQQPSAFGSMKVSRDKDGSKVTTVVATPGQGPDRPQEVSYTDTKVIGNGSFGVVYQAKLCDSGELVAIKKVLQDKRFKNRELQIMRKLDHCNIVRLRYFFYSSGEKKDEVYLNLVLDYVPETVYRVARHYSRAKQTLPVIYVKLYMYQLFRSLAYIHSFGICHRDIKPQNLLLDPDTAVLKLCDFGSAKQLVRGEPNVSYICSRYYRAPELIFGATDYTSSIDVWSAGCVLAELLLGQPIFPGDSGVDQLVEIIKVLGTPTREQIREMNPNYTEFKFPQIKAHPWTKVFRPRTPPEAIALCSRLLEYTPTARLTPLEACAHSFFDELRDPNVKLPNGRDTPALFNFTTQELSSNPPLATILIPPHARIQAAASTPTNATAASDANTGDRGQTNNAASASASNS
T2 sequence (Q00535 whole entry): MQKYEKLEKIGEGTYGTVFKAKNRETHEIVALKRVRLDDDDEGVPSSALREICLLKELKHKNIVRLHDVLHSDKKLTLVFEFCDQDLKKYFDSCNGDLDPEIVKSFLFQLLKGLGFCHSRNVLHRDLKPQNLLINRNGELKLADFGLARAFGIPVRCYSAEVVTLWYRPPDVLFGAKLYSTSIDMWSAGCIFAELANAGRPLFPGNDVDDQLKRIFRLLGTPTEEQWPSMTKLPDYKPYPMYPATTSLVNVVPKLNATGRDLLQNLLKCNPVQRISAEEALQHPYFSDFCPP
T2 sequence (Q15078 108-307 partner limits assumed): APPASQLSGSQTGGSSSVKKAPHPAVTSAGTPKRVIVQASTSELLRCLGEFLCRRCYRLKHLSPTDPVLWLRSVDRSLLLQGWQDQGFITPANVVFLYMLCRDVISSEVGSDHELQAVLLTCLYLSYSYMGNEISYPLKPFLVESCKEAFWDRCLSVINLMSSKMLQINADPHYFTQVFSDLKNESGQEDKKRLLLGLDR

Regarding “5-Chloro-3-[2-cyclopentyl-6-(2-diethylamino-ethoxy)-2H-pyrazolo [3,4-d]pyrimidin-4-yl]-1,3-dihydro-indol-2-one [Example 141]”, the IC50 was less than 300 nM in test [1] (class symbols) and greater than 10000 nM in test [2] (class symbols).

As for `N#Cc1ccc2c(c1)C(c1nc(Nc3cccnc3)nc3c1CCC3)C(=O)N2` (centres unmarked) [Example 350, 2-Oxo-3-[2-(pyridin-3-ylamino)-6,7-dihydro-5H-cyclopentapyrimidin-4-yl]-2,3-dihydro-1H-indole-5-carbonitrile], the IC50 in test [1] (class symbols) is 300 to 3000 nM; in test [2] (numeric bounds) it was greater than 3000 nM.

As to `O=C1Nc2ccc(Cl)cc2C1c1nc(NCc2cccnc2)nc2c1CCC2` (centres unmarked) [Example 327, 5-Chloro-3-{2-[(pyridin-3-ylmethyl)-amino]-6,7-dihydro-5H-cyclopentapyrimidin-4-yl}-1,3-dihydro-indol-2-one], the results for the IC50 in test [1] (class symbols) and in test [2] (numeric bounds) were 300 to 3000 nM and greater than 3000 nM, respectively.

`COCCCNc1nc(C2C(=O)Nc3ccc(C#N)cc32)c2cn(C3CCCC3)nc2n1` (centres unmarked) [Example 175, 3-[2-Cyclopentyl-6-(3-methoxy-propylamino)-2H-pyrazolo [3,4-d]pyrimidin-4-yl]-2-oxo-2,3-dihydro-1H-indole-5-carbonitrile]: the IC50 in test [1] (class symbols) and in test [2] (class symbols) was less than 300 nM in each case.

With `O=C1Nc2ccc(Br)cc2C1c1nc(NCc2ccccn2)nc2c1CCC2` (centres unmarked) [Example 339, 5-Bromo-3-{2-[(pyridin-2-ylmethyl)-amino]-6,7-dihydro-5H-cyclopentapyrimidin-4-yl}-1,3-dihydro-indol-2-one], the IC50 in test [1] (class symbols) and in test [2] (class symbols) was greater than 10000 nM in each case.

As for `N#Cc1ccc2c(c1)C(c1nc(NCc3ccccn3)nc3c1CCC3)C(=O)N2` (centres unmarked) [Example 349, 2-Oxo-3-{2-[(pyridin-2-ylmethyl)-amino]-6,7-dihydro-5H-cyclopentapyrimidin-4-yl}-2,3-dihydro-1H-indole-5-carbonitrile], the IC50 in test [1] (class symbols) is 300 to 3000 nM; in test [2] (class symbols), less than 300 nM.

Consider `O=C1Nc2ccc(Br)cc2C1c1nc(NCc2ccccn2)nc2nn(C3CCCC3)cc12` (centres unmarked) [Example 179, 5-Bromo-3-{2-cyclopentyl-6-[(pyridin-2-ylmethyl)-amino]-2H-pyrazolo [3,4-d]pyrimidin-4-yl}-1,3-dihydro-1H-indol-2-one], for which the IC50 in test [1] (class symbols) was less than 300 nM; in test [2] (class symbols), 300 to 3000 nM.

Take `O=C1Nc2ccc(Br)cc2C1c1nc(NCCc2cccnc2)nc2nn(C3CCCC3)cc12` (centres unmarked) [Example 181, 5-Bromo-3-[2-cyclopentyl-6-(2-pyridin-3-yl-ethylamino)-2H-pyrazolo [3,4-d]pyrimidin-4-yl]-1,3-dihydro-1H-indol-2-one]: in test [1] (class symbols), the IC50 was less than 300 nM. Further, the “CDK5 % @10 μM” value in test [2] (@10 μM) is on record as 70% @10 μM.

Consider `O=C1Nc2ccc(F)cc2C1c1nc(NCc2cccnc2)nc2c1CCC2` (centres unmarked) [Example 321, 5-Fluoro-3-{2-[(pyridin-3-ylmethyl)-amino]-6,7-dihydro-5H-cyclopentapyrimidin-4-yl}-1,3-dihydro-indol-2-one], for which the IC50 in test [1] (numeric bounds) and in test [2] (numeric bounds) was greater than 3000 nM each time.

In the case of `N#Cc1ccc2c(c1)C(c1nc(NN)nc3nn(C4CCCC4)cc13)C(=O)N2` (centres unmarked) [Example 124, 3-(2-cyclopentyl-6-hydrazino-2H-pyrazolo [3,4-d]pyrimidin-4-yl)-2-oxo-2,3-dihydro-1H-indole-5-carbonitrile], the IC50 in test [1] (class symbols) is less than 300 nM; in test [2] (class symbols), 300 to 3000 nM.

In the case of `N#Cc1ccc2c(c1)C(c1nc(NCCN3CCOCC3)nc3nn(C4CCCC4)cc13)C(=O)N2` (centres unmarked) [Example 177, 3-[2-Cyclopentyl-6-(2-morpholin-4-yl-ethylamino)-2H-pyrazolo[3,4-d]pyrimidin-4-yl]-2-oxo-2,3-dihydro-1H-indole-5-carbonitrile], the IC50 in test [1] (class symbols) and in test [2] (class symbols) was less than 300 nM throughout.

For the molecule `N#Cc1ccc2c(c1)C(c1nc(NCc3cccnc3)nc3c1CCC3)C(=O)N2` (centres unmarked) [Example 348, 2-Oxo-3-{2-[(pyridin-3-ylmethyl)-amino]-6,7-dihydro-5H-cyclopentapyrimidin-4-yl}-2,3-dihydro-1H-indole-5-carbonitrile], the IC50 in test [1] (class symbols) is 300 to 3000 nM; in test [2] (class symbols), less than 300 nM.

Consider `N#Cc1ccc2c(c1)C(c1nc(Nc3ccc(N4CCS(=O)(=O)CC4)cc3)nc3nn(C4CCCC4)cc13)C(=O)N2` (centres unmarked) [Example 135, 3-{2-Cyclopentyl-6-[4-(1,1-dioxo-1λ^6-thiomorpholin-4-yl)-phenylamino]-2H-pyrazolo[3,4-d]pyrimidin-4-yl}-2-oxo-2,3-dihydro-1H-indole-5-carbonitrile], for which the IC50 was less than 300 nM in test [1] (class symbols) and greater than 10000 nM in test [2] (class symbols).

In the case of `CCOCCn1cc2c(C3C(=O)Nc4ccc(Cl)cc43)nc(NCCc3cccnc3)nc2n1` (centres unmarked) [Example 212, 5-Chloro-3-[2-(2-ethoxy-ethyl)-6-(2-pyridin-3-yl-ethylamino)-2H-pyrazolo [3,4-d]pyrimidin-4-yl]-1,3-dihydro-indol-2-one], the IC50 in test [1] (class symbols) and in test [2] (class symbols) was less than 300 nM each time.

As for `CCCn1cc2c(C3C(=O)Nc4ccc(Br)cc43)nc(N[C@H]3CCNC3)nc2n1` (some centres unmarked) [Example 362], the IC50 was 300 to 3000 nM in test [1] (class symbols) and greater than 3000 nM in test [2] (numeric bounds).

In the case of `O=C1Nc2ccc(Cl)cc2C1c1nc(N2CCOCC2)nc2nn(C3CCCC3)cc12` (centres unmarked) [Example 143, 5-Chloro-3-(2-cyclopentyl-6-morpholin-4-yl-2H-pyrazolo [3,4-d]pyrimidin-4-yl)-1,3-dihydro-indol-2-one], the figures for the IC50 in test [1] (class symbols) and in test [2] (class symbols) were less than 300 nM and greater than 10000 nM, respectively.
